In PMC10502144, “Anti-methicillin-resistant Staphylococcus aureus activity and safety evaluation of 14-O-[(5-ethoxycarbonyl-4,6-dimethylpyrimidine-2-yl) thioacetyl] mutilin (EDT)” (Scientific Reports, 2023):

Tested on: female Wistar rats
Assay: Acute oral toxicity test (OECD423)
Format: in vivo
Settings: for Absolute organ weight, Heart / Absolute organ weight, Kidneys / Absolute organ weight, Liver / Absolute organ weight, Lungs / Absolute organ weight, Ovaries / Absolute organ weight, Spleen / Absolute organ weight, Uterus: 2000 mg/kg oral single dose; for Relative organ weight, Kidneys: organ/b.w. × 100
Experimental: Adult specific pathogen free (SPF) female Wistar rats (4–6 weeks old) were purchased from Lanzhou Veterinary Research Institute, Chinese Academy of Agricultural Sciences. Animals were kept in clean stainless steel cages (3 rats per cage), free access to food and water and maintained under the 23 °C conditions with a constant 12 h light–dark cycle. Animals were acclimatized for at least 7 days before the experiment. […] The animal study was carried out in compliance with the ARRIVE guidelines.
Acute toxicity tests of EDT were performed according to OECD423 bulletin[23]. This method can measure drug roughly LD50 with fewer experimental animals. […] Six animals were randomly separated into one treatment group (n = 3) and control group (n = 3). Rats in treatment group were orally administered with a single dose of 2000 mg/kg of EDT dissolved in vehicle (corn oil: DMSO = 4:1) in a volume of 10 mL/kg body weight (b.w.) by gavage. Animals in the control group only received 10 mL/kg vehicle. […] After first round treatment, observations were focused on mortality, behavioural symptoms and changes in skin, eyes and fur. Individual body weight was recorded at the starting of protocol and at the end of protocol. […] On the 14th day, all the surviving animals were euthanized with ketamine hydrochloride 70 mg/kg (i.p.) and their hearts, livers, spleens, lungs, kidneys, uterus and ovaries were individually observed for overt pathology and removed for relative weight calculation (organ/b.w. × 100).

## C=CC1(C)CC(OC(=O)CSc2nc(C)c(C(=O)OCC)c(C)n2)C2(C)C(C)CCC3(CCC(=O)C32)C(C)C1O (stereo not shown) [EDT, 14-O-[(5-ethoxycarbonyl-4,6-dimethylpyrimidine-2-yl)thioacetyl] mutilin]
Female Wistar rats, single oral dose, OECD Guidelines 423
  LD50: more than 2000 mg/kg body weight
First round treatment, day 14
  Absolute organ weight, Heart: 0.71 ± 0.06 g
  Absolute organ weight, Kidneys: 1.11 ± 0.01 g
  Absolute organ weight, Liver: 9.66 ± 0.17 g
  Absolute organ weight, Lungs: 1.38 ± 0.03 g
  Absolute organ weight, Ovaries: 0.06 ± 0.00 g
  Absolute organ weight, Spleen: 0.70 ± 0.03 g
  Absolute organ weight, Uterus: 0.45 ± 0.02 g
First round treatment
  Relative organ weight, Kidneys: 0.52 ± 0.01%
rat, in vivo
  Relative organ weight, Ovaries: 0.03 ± 0.00%
  Relative organ weight, Spleen: 0.33 ± 0.01%
rat, in vivo, po, 2000 mg/kg
  mortality: no mortality
Second round treatment, day 14
  Absolute organ weight, Heart: 0.75 ± 0.03 g
  Absolute organ weight, Kidneys: 1.11 ± 0.03 g
  Absolute organ weight, Liver: 9.69 ± 0.06 g
  Absolute organ weight, Lungs: 1.40 ± 0.05 g
  Absolute organ weight, Ovaries: 0.06 ± 0.00 g
  Absolute organ weight, Spleen: 0.71 ± 0.03 g
  Absolute organ weight, Uterus: 0.43 ± 0.03 g
Second round treatment
  Relative organ weight, Kidneys: 0.52 ± 0.01%
Single oral 2000 mg/kg, 14 days
  body weight compared to the control group: did not produce alterations in body weight
Single oral 2000 mg/kg, day 14
  macroscopic necropsy examination: no gross pathological lesions
